IC50 data for three compounds are collected here from BindingDB's records for doi:10.1074/jbc.M705416200 (University Würzburg, 2007).

Peptide text beside a SMILES is read from it.

This test in a line: Inhibition of human SGLT1 expressed in xenopus laevis oocyte assessed as inhibition of methyl-alpha-D-[14C]glucopyranoside uptake after 1 hrs.
For `NC(=O)CC[C@H](N)C(=O)N[C@@H](CO)C(=O)N1CCC[C@H]1C(=O)O` [(S)-1-((S)-2-((S)-2,5-diamino-5-oxopentanamido)-3-hydroxypropanoyl)pyrrolidine-2-carboxylic acid] (H-Gln-Ser-Pro-OH), the IC50 (as a rule, the point on the concentration scale where inhibition reaches its midpoint) was 0.16 nM.

Take `NC(=O)CC[C@H](N)C(=O)N[C@@H](CS)C(=O)N1CCC[C@H]1C(=O)O` [QCP] (H-Gln-Cys-Pro-OH): the IC50 worked out at 2.1 nM. Turning to `CC(=O)N1CCC[C@H]1C(=O)N[C@@H](CO)C(=O)N[C@@H](CCC(N)=O)C(=O)O` [QSPac] (Ac-Pro-Ser-Gln-OH), the IC50 is 0.17 nM.
